The text below walks through data of patent US20090192164A1, “Treating agent of inflammatory bowel disease” (ASKA Pharmaceutical Co., Ltd., priority 2006, published 2009).

Structures are written as SMILES.

Data set [1] in a line: Compounds' extinction rates in human liver S9. It counts as in vitro ADME. The note with it: human liver S9 0.5 mg protein/mL, compound 1 μmol/L, 37° C. The method, then: (3) Measurement of the Compounds' Extinction Rates:
To a potassium phosphate buffer solution (50 mmol/L, pH […]) containing NADPH production system (formed of 3.3 mmol/L MgCl2, 3.3 mmol/L glucose-6-phosphate, 1.3 mmol/L β-NAPD^+ and 0.4 unit/mL glucose-6-phosphate dehydrogenase), each test compound was added (in which occasion the final concentration was made 1 μmol/L) and incubated at 37° C. for 2 minutes. After the incubation, a suspension of human liver S9 (supernatant fraction obtained by centrifugation of crushed human liver cells at 9000×g) in potassium phosphate buffer solution was added to a final concentration of 0.5 mg protein/mL. This liquid reaction mixture was incubated at 37° C. for 5 minutes, to which 4 volume times thereof of acetonitrile was added, mixed, and cooled with ice. After the cooling with ice, the mixture was centrifuged (2000×g, 10 min.) and a part of the supernatant was recovered and analyzed with LSIMS/MS to calculate the residual ratio of unchanged substance in the reaction solution. The results are shown in the following Table B concurrently with the results of above (2) measurement of TNF-α production-inhibiting activity.

The test system of data set [2] is TNF-α production in THP-1 cells. In words: TNF-α production-inhibiting activity in LPS-stimulated THP-1 cells. The data set is classed as cell-based. The following applies: Homo sapiens, 2 hours, ELISA. The method, then: (2) Measurement of TNF-α Production-Inhibiting Activity:
THP-1 (purchased from Dainippon Pharmaceuticals Co.) which are human-derived cultured cells, were suspended in RPMI1640 culture medium (10% fetal bovine serum, containing 100 units/mL penicillin) (1×10^5 cells/mL). Onto a 24-well culture plate, 1.6 mL of the THP-1 cell suspension was inoculated, and further 0.2 mL of the test substance as dissolved in RPM11640 culture medium and 0.2 mL of LPS (E. Coli 055: B5-derived, dissolved in RPM11640 culture medium, Difco) at a concentration of 10 μg/mL were added, followed by 2 hours' cultivation under the conditions of 37° C. and 5% CO2. The supernatant obtained upon centrifugation (500×g, 5 min.) was assayed with ELISA (Amersham Bioscience, TNF-α: Human, ELISA Biotrak System) to quantify TNF-α. The concentration of each test substance required to inhibit TNF-α production by 50% (IC50) was determined as follows. First, TNF-α production inhibition (%) values at various concentrations were determined by the following formula: […]
The TNF-α production inhibition (%) obtained by the above formula and the concentration of the test substance in that occasion were computed on Prism 4 for Windows Ver 4.02 (Graph Pad Software, Inc.) to calculate IC50 value.
In general terms: ELISA stands for enzyme-linked immunosorbent assay.

Turning to `COc1cccc(CC(=O)Nc2onc(-c3ccc(F)c(C)c3)c2-c2ccncn2)c1` [Compound B-12, 5-[(3-Methoxyphenyl)acetylamino]-3-(3-methyl-4-fluorophenyl)-4-(4-pyrimidinyl)isoxazole], the “Parent compound remaining after 5 min in human liver S9 (%)” value (from here on “Parent compound remaining … (%)”) in data set [1] came to 33.1%. The same molecule gave an IC50 in data set [2] of 52.6 nM.

For `Cc1cccc(-c2noc(NC(=O)CCc3ccccc3C)c2-c2ccncc2)c1` [Compound B-15, 3-(3-Methylphenyl)-5-[(2-methylphenyl)propionylamino]-4-(4-pyridyl)isoxazole], in data set [1], the “Parent compound remaining … (%)” value turned out to be 23.3%. For the same molecule, the IC50 in data set [2] worked out at 52.9 nM.

Take `Cc1cccc(CC(=O)Nc2onc(-c3cccc(C)c3)c2-c2ccncn2)c1` [Compound B-10, 3-(3-Methylphenyl)-5-[(3-methylphenyl)acetylamino]-4-(4-pyrimidinyl)isoxazole]: the “Parent compound remaining … (%)” value in data set [1] is listed as 38.5%. In data set [2], this molecule had an IC50 of 152 nM.

Turning to `Cc1cccc(-c2noc(NC(=O)Cc3ccccc3Br)c2-c2ccncn2)c1` [Compound B-8, 5-[(2-Bromophenyl)acetylamino]-3-(3-methylphenyl)-4-(4-pyrimidinyl)isoxazole], the “Parent compound remaining … (%)” value in data set [1] came out at 43.6%. In data set [2], this molecule had a half-maximal inhibitory concentration (IC50) of 49.2 nM.

`Cc1cc(-c2noc(NC(=O)Cc3ccccc3Cl)c2-c2ccncc2)ccc1F` [Compound B-18, 5-[(2-Chlorophenyl)acetylamino]-3-(4-fluoro-3-methylphenyl)-4-(4-pyridyl)isoxazole]: in data set [1], the “Parent compound remaining … (%)” value was 59.7%. In data set [2], this molecule came in with a half-inhibitory concentration (IC50) of 85.2 nM.

On to `CCn1nc(-c2ccc(F)cc2)c(-c2ccncn2)c1C(=O)OCc1ccc(Cl)cc1Cl` [Compound B-21], for which, in data set [1], the “Parent compound remaining … (%)” value is 56.4%. The molecule further displayed a 50% inhibitory concentration (IC50) in data set [2] of 61.5 nM.

Regarding `Cc1ccc(F)c(-c2noc(NC(=O)Cc3ccccc3)c2-c2ccncn2)c1` [Compound B-11, 3-(2-Fluoro-5-methylphenyl)-5-(phenylacetylamino)-4-(4-pyrimidinyl)isoxazole], the “Parent compound remaining … (%)” value in data set [1] was determined as 39.8%. The molecule also had a half-maximal inhibitory concentration (IC50) in data set [2] of 90.5 nM.

For `Cc1cccc(-c2noc(NC(=O)Cc3ccccc3C)c2-c2ccncn2)c1` [Compound B-9, 3-(3-Methylphenyl)-5-[(2-methylphenyl)acetylamino]-4-(4-pyrimidinyl)isoxazole], the “Parent compound remaining … (%)” value in data set [1] is listed as 59.9%. Also, in data set [2], half-maximal inhibition (IC50) required 13.4 nM.

For `Cc1cc(-c2noc(NC(=O)Cc3ccccc3)c2-c2ccncc2)ccc1F` [Compound B-17, 3-(4-Fluoro-3-methylphenyl)-5-(phenylacetylamino)-4-(4-pyridyl)isoxazole], in data set [1], the “Parent compound remaining … (%)” value is 58.0%. The same molecule gave a concentration for half-maximal inhibition (IC50) in data set [2] of 78.1 nM.

On to `O=C(Cc1c(F)cccc1Cl)Nc1onc(-c2ccc(F)cc2)c1-c1ccncn1` [Compound B-2, 5-[(2-Chloro-6-fluorophenyl)acetylamino]-3-(4-fluorophenyl)-4-(4-pyrimidinyl)isoxazole], for which the “Parent compound remaining … (%)” value in data set [1] is recorded as 16.1%. Moreover, the IC50 in data set [2] stood at 67.9 nM.

`Cc1cccc(-c2noc(NC(=O)Cc3ccccc3Cl)c2-c2ccncn2)c1` [Compound B-7, 5-[(2-Chlorophenyl)acetylamino]-3-(3-methylphenyl)-4-(4-pyrimidinyl)isoxazole]: the “Parent compound remaining … (%)” value in data set [1] was determined as 21.2%. In addition, in data set [2], the IC50 is 36.7 nM.

On to `COc1ccc(-c2noc(NC(=O)Cc3ccccc3Cl)c2-c2ccncn2)c(F)c1` [Compound B-6, 5-[(2-Chlorophenyl)acetylamino]-3-(2-fluoro-4-methoxyphenyl)-4-(4-pyrimidinyl)isoxazole], for which the “Parent compound remaining … (%)” value in data set [1] is listed as 24.1%. Besides, the IC50 in data set [2] came out at 28.5 nM.

As for `O=C(Cc1ccccc1Cl)Nc1onc(-c2ccc(Cl)cc2)c1-c1ccncn1` [Compound B-3, 3-(4-Chlorophenyl)-5-[(2-chlorophenyl)acetylamino]-4-(4-pyrimidinyl)isoxazole], the “Parent compound remaining … (%)” value in data set [1] came out at 53.1%. In data set [2], this molecule yielded an IC50 of 48.7 nM.

Regarding `CCn1nc(-c2cccc(C)c2)c(-c2ccncc2)c1COC(=O)c1ccccc1` [Compound B-23], the “Parent compound remaining … (%)” value in data set [1] was 28.3%. In data set [2], the IC50 amounted to 26.5 nM.

`Cc1cccc(-c2nn(C)c(COC(=O)c3ccccc3)c2-c2ccncc2)c1` [Compound B-22]: the “Parent compound remaining … (%)” value in data set [1] came to 25.5%. Moreover, half-maximal inhibition in data set [2] (IC50) was put at 45.5 nM.

As to `Cc1cc(-c2noc(NC(=O)CCc3ccccc3)c2-c2ccncc2)ccc1F` [Compound B-19, 3-(4-Fluoro-3-methylphenyl)-5-(3-phenylpropionylamino)-4-(4-pyridyl)isoxazole], the “Parent compound remaining … (%)” value in data set [1] was 20.1%. Besides, half-maximal inhibition in data set [2] (IC50) required 66 nM.

Regarding `Cc1cccc(CC(=O)Nc2onc(-c3ccc(F)cc3F)c2-c2ccncn2)c1` [Compound B-5, 3-(2,4-Difluorophenyl)-5-[(3-methylphenyl)acetylamino]-4-(4-pyrimidinyl)isoxazole], in data set [1], the “Parent compound remaining … (%)” value is 46.6%. In data set [2], the midpoint of inhibition, the IC50, lay at 139 nM.

`O=C(Cc1ccccc1Cl)Nc1onc(-c2ccc(F)cc2)c1-c1ccncn1` [Compound B-1, 5-[(2-Chlorophenyl)acetylamino]-3-(4-fluorophenyl)-4-(4-pyrimidinyl)isoxazole]: the “Parent compound remaining … (%)” value in data set [1] was 5.8%. The molecule further yielded an IC50 in data set [2] of 36.1 nM.

Consider `O=C(Cc1ccccc1Cl)Nc1onc(-c2ccc(F)cc2F)c1-c1ccncn1` [Compound B-4, 5-[(2-Chlorophenyl)acetylamino]-3-(2,4-difluorophenyl)-4-(4-pyrimidinyl)isoxazole], for which the “Parent compound remaining … (%)” value in data set [1] stood at 20.4%. Besides, the half-inhibitory concentration (IC50) in data set [2] is 32.1 nM.

With `Cc1ccc(F)c(-c2noc(NC(=O)CCc3cccc(Cl)c3)c2-c2ccncc2)c1` [Compound B-16, 5-[(3-Chlorophenyl)propionylamino]-3-(2-fluoro-5-methyl-phenyl)-4-(4-pyridyl)isoxazole], in data set [1], the “Parent compound remaining … (%)” value worked out at 50.5%. In data set [2], this molecule came in with an IC50 of 58.1 nM.

Turning to `Cc1cc(-c2noc(NC(=O)Cc3ccccc3C)c2-c2ccncn2)ccc1F` [Compound B-13, 3-(3-Methyl-4-fluorophenyl)-5-[(2-methylphenyl)acetylamino]-4-(4-pyrimidinyl)isoxazole], the “Parent compound remaining … (%)” value in data set [1] came to 52.6%. Also, the half-maximal inhibitory concentration (IC50) in data set [2] is 13.7 nM.

Consider `Cc1cccc(-c2noc(NC(=O)CCc3ccccc3)c2-c2ccncc2)c1` [Compound B-14, 3-(3-Methylphenyl)-5-(3-phenylpropionylamino)-4-(4-pyridyl)isoxazole], for which, in data set [1], the “Parent compound remaining … (%)” value was 17.6%. Also, the IC50 in data set [2] came to 65.5 nM.

Consider `CCCn1nc(-c2ccc(F)cc2)c(-c2ccncc2)c1C(=O)OCc1ccccc1Cl` [Compound B-20], for which the “Parent compound remaining … (%)” value in data set [1] is recorded as 77.0%. In data set [2], this molecule had an IC50 of 83.3 nM.

As a reminder, the IC50 is the concentration needed to halve the response being measured. Low readings indicate greater potency, high ones weaker potency.
